This passage reports IC50 results from US8557816B2, “Aurora kinase modulators and method of use” (Amgen Inc., priority 2007, dated 2013).

In test [1] the target is T1, AuroraA-TPX2 (Homo sapiens, UniProt O14965).
T1 construct: 20 μL of AuroraA-TPX2 KD GST for a final volume of about 41 μL; GST
T1 sequence (O14965 133-383 limits assumed): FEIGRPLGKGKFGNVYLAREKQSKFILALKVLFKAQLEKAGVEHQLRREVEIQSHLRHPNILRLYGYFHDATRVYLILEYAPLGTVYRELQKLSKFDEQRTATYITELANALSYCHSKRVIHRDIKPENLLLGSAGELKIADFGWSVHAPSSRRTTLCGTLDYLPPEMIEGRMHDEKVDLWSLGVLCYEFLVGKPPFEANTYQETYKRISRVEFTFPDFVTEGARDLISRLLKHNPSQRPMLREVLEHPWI
T1 sequence (Q9ULW0 1-43 partner limits assumed): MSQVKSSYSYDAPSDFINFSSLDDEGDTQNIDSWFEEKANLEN
The test is described as follows: AuroraA-TPX2 Homogeneous Time Resolved Fluorescent (HTRF) kinase assay. Format: biochemical. Particulars: average; read-out: AurA_IC50_IP (uM Avg). In outline: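 HTRF read-out (Eu 615 nm to APC 655 nm) of phosphorylated biotin-PLK, detected with 0.02 nM europium anti-phosphoPLK antibody and 0.0005 mg/mL SA-APC after overnight equilibration.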

Test [2] concerns the target T2, AuroraB (Homo sapiens, UniProt Q96GD4).
T2 construct: 20 μL of AuroraB FL H is for a final volume of 41 μL; His
The test can be described thus: AuroraB Homogeneous Time Resolved Fluorescent (HTRF) kinase assay. It is filed as biochemical. Particulars: average; read-out: AurB_IC50_IP (uM Avg). A digest of the protocol:
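Read-out is time-resolved FRET between europium anti-phospho-H3 antibody and streptavidin-APC, added in EDTA buffer to stop the reaction and equilibrated about 60 min (ex 320, em 615 and 655 nm). Preceding reaction: ~90 min, full-length enzyme, ATP, 0.1 μM biotin-Histone H3 substrate, Mg/Mn HEPES buffer pH 7.5.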
(TR-FRET usually uses a lanthanide donor and a delayed reading to cut background.)

T2 sequence (Q96GD4 whole entry): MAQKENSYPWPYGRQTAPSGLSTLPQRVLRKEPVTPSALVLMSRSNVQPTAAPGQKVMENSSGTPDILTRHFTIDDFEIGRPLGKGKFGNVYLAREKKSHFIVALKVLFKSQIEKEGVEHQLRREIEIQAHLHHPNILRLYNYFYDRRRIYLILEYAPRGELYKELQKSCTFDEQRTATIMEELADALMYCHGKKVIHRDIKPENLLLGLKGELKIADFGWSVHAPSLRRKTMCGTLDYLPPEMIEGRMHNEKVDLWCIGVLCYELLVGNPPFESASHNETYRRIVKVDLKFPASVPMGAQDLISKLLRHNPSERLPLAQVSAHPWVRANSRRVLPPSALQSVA

For `N#Cc1ccc(-c2nnc(Nc3ccc(Oc4ccnc5cc(C#N)ccc45)cc3)c3ccccc23)cc1` [compound 217, 4-((4-((4-(4-cyanophenyl)-1-phthalazinyl)amino)phenyl)oxy)-7-quinolinecarbonitrile], the results for the IC50 in test [1] and in test [2] were 0.454 µM and 0.016 µM, respectively.
On the same counts, the results for `Clc1ccc(-c2nnc(Nc3ccc(Sc4ccnc5ccccc45)cc3)c3ccccc23)nc1` [compound 365, 4-(5-chloropyridin-2-yl)-N-(4-(quinolin-4-ylthio)phenyl)phthalazin-1-amine] are 0.016 µM and 0.011 µM.
On the same counts, the results for `COc1cnc2c(Sc3ccc(Nc4nnc(OC(C)C)c5ccccc45)cc3)ccnc2c1` [compound 511] are 0.585 µM and 0.069 µM.
The like results for `COc1cnc2c(Oc3ccc(Nc4nnc(-c5ccc6c(c5)OCCN6C)c5ccccc45)cc3)ccnc2c1` [compound 157, 4-(4-methyl-3,4-dihydro-2H-1,4-benzoxazin-7-yl)-N-(4-((7-(methyloxy)-1,5-naphthyridin-4-yl)oxy)phenyl)-1-phthalazinamine] were, in that order, 0.012 µM and 0.005 µM.
For `Cc1noc(-c2cc3nccc(Oc4ccc(Nc5nnc(-c6ccc(Cl)cc6)c6ccccc56)cc4)c3s2)n1` [compound 286, 4-(4-chlorophenyl)-N-(4-((2-(3-methyl-1,2,4-oxadiazol-5-yl)thieno[3,2-b]pyridin-7-yl)oxy)phenyl)-1-phthalazinamine], the IC50 in test [1] amounted to 0.087 µM; in test [2], 0.022 µM.
On the same counts, the results for `COc1cnc2c(Sc3ccc(Nc4nnc(N5CCc6sccc6C5)c5ccccc45)cc3)ccnc2c1` [compound 578] are 0.033 µM and 0.081 µM.
The like results for `COc1cnc2c(Oc3ccc(Nc4nnc(N5CCSCC5)c5ccccc45)cc3)ccnc2c1` [compound 337, N-(4-(7-methoxy-1,5-naphthyridin-4-yloxy)phenyl)-4-thiomorpholinophthalazin-1-amine] were, in that order, 0.076 µM and 0.015 µM.
`Clc1ccc(-c2nnc(Nc3ccc(Oc4ncnc5ccsc45)cc3)c3ccccc23)cc1` [compound 591]: the IC50 in test [1] stood at 0.25 µM; in test [2], 0.005 µM.
The like results for `COCCn1ccc2nccc(Sc3ccc(Nc4nnc(-c5cc(C)cs5)c5ccccc45)cc3)c21` [compound 470, N-(4-((1-(2-(methyloxy)ethyl)-1H-pyrrolo[3,2-b]pyridin-7-yl)thio)phenyl)-4-(4-methyl-2-thienyl)-1-phthalazinamine] were, in that order, 0.041 µM and 0.051 µM.
The like results for `CCc1ccc(-c2nnc(Nc3ccc(Oc4ccnc5cc(OC)cnc45)cc3)c3ccccc23)s1` [compound 229, 4-(5-ethyl-2-thienyl)-N-(4-((7-(methyloxy)-1,5-naphthyridin-4-yl)oxy)phenyl)-1-phthalazinamine] were, in that order, 0.024 µM and 0.007 µM.
The like results for `CCc1cc(-c2ccc(Cl)cc2)nnc1Nc1ccc(Oc2ccnc3cc(OC)cnc23)cc1` [compound 256, 6-(4-chlorophenyl)-4-ethyl-N-(4-((7-(methyloxy)-1,5-naphthyridin-4-yl)oxy)phenyl)-3-pyridazinamine] were, in that order, 0.012 µM and 0.003 µM.
As for `CCc1cc(-c2ccc(C)cc2)nnc1Nc1ccc(Sc2ccnc3cc(OC)cnc23)cc1` [compound 322, 4-ethyl-N-(4-((7-(methyloxy)-1,5-naphthyridin-4-yl)thio)phenyl)-6-(4-methylphenyl)-3-pyridazinamine], the results for the IC50 in test [1] and in test [2] were 0.033 µM and 0.032 µM, respectively.
On the same counts, the results for `COc1cnc2c(Oc3ccc(Nc4nnc(-c5ccccc5)c5ccccc45)cc3F)ccnc2c1` [compound 89, N-(3-fluoro-4-((7-(methyloxy)-1,5-naphthyridin-4-yl)oxy)phenyl)-4-phenyl-1-phthalazinamine] are 0.012 µM and 0.007 µM.
On the same counts, the results for `COc1ccc2nccc(Oc3ccc(Nc4nnc(-c5ccc6c(c5)OCO6)c5ccccc45)cc3)c2n1` [compound 551] are 0.096 µM and 0.017 µM.
On the same counts, the results for `COc1ccc2nccc(Oc3ccc(Nc4nnc(-c5ccccc5)c5ccccc45)cc3)c2c1` [compound 238, N-(4-((6-(methyloxy)-4-quinolinyl)oxy)phenyl)-4-phenyl-1-phthalazinamine] are 0.265 µM and 0.005 µM.
For the compound `c1ccc(-c2nnc(Nc3ccc(Sc4ccnc5ccncc45)cc3)c3ccccc23)cc1` [compound 425], the IC50 in test [1] was 0.171 µM; in test [2], 0.003 µM.
The like results for `Cc1cccc(-c2nnc(Nc3ccc(Sc4ccnc5ccoc45)cc3)c3ccccc23)n1` [compound 488] were, in that order, 1.29 µM and 0.015 µM.
`COc1cccc(-c2nnc(Nc3ccc(Oc4ccnc5cc(OC)c(OC)cc45)cc3)c3ccccc23)n1` [compound 101, N-(4-((6,7-bis(methyloxy)-4-quinolinyl)oxy)phenyl)-4-(6-(methyloxy)-2-pyridinyl)-1-phthalazinamine]: the IC50 in test [1] and in test [2] was 0.01 µM each time.
As to `COc1cnc2c(Sc3ccc(Nc4nnc(-c5cccc(C)n5)c5ccccc45)cc3)ccnc2c1` [compound 420], the IC50 in test [1] came to 0.072 µM; in test [2], 0.015 µM.
In the case of `N#Cc1cnc2c(Oc3ccc(Nc4nnc(-c5ccc(Cl)cc5)c5ccccc45)cc3)ccnc2c1` [compound 265, 8-((4-((4-(4-chlorophenyl)-1-phthalazinyl)amino)phenyl)oxy)-1,5-naphthyridine-3-carbonitrile], the values for the IC50 in test [1] and in test [2] were 0.113 µM and 0.009 µM, respectively.
As for `COc1ccc2nccc(Sc3ccc(Nc4nnc(-c5ccc(Cl)cc5)c5ccccc45)cc3)c2c1` [compound 297, 4-(4-chlorophenyl)-N-(4-(6-methoxyquinolin-4-ylthio)phenyl)phthalazin-1-amine], the IC50 in test [1] came out at 0.036 µM; in test [2] it was 0.031 µM.
On the same counts, the results for `Brc1cnc2c(Oc3ccc(Nc4nnc(-c5ccccc5)c5ccccc45)cc3)ccnc2c1` [compound 245, N-(4-((7-bromo-1,5-naphthyridin-4-yl)oxy)phenyl)-4-phenyl-1-phthalazinamine] are 0.153 µM and 0.006 µM.
The like results for `c1ccc(-c2nnc(Nc3ccc(Sc4ccnc5cccnc45)cc3)c3ccccc23)cc1` [compound 309, N-(4-(1,5-naphthyridin-4-ylthio)phenyl)-4-phenyl-1-phthalazinamine] were, in that order, 0.054 µM and 0.003 µM.
With `Clc1ccc(-c2nnc(Nc3ccc(Sc4ccnc5cccnc45)cc3)c3ccccc23)nc1` [compound 493], the IC50 in test [1] worked out at 0.02 µM; in test [2], 0.002 µM.
On the same counts, the results for `CN1CCN(c2nnc(Nc3ccc(Oc4ccnc5cc(C#N)ccc45)cc3)c3ccccc23)CC1` [compound 94, 4-((4-((4-(4-methyl-1-piperazinyl)-1-phthalazinyl)amino)phenyl)oxy)-7-quinolinecarbonitrile] are 0.027 µM and 0.001 µM.
On the same counts, the results for `COc1cnc2c(Oc3ccc(Nc4nnc(-c5ccc6sccc6c5)c5ccccc45)cc3)ccnc2c1` [compound 142, 4-(1-benzothien-5-yl)-N-(4-((7-(methyloxy)-1,5-naphthyridin-4-yl)oxy)phenyl)-1-phthalazinamine] are 0.008 µM and 0.007 µM.
On the same counts, the results for `Cc1ccc(-c2nnc(Nc3ccc(Oc4ccnc5cc(C#N)ccc45)cc3)c3ccccc23)nc1` [compound 122, 4-((4-((4-(5-methyl-2-pyridinyl)-1-phthalazinyl)amino)phenyl)oxy)-7-quinolinecarbonitrile] are 0.022 µM and 0.003 µM.
As to `COc1ccc2c(C(O)c3ccc(Nc4nnc(-c5ccc(Cl)cc5)c5ccccc45)cc3)ccnc2c1` (stereo not shown) [compound 614], the IC50 in test [1] was 0.223 µM; in test [2], 0.046 µM.
On the same counts, the results for `COc1cc(OC)c2c(Oc3ccc(Nc4nnc(-c5ccccc5)c5ccccc45)cn3)ncnc2c1` [compound 606] are > 25 µM and 0.035 µM.
`COc1cnc2c(Sc3ccc(Nc4nnc(-c5cc(C)cs5)c5ccccc45)cc3)ccnc2c1` [compound 271, N-(4-(7-methoxy-1,5-naphthyridin-4-ylthio)phenyl)-4-(4-methylthiophen-2-yl)phthalazin-1-amine]: the results for the IC50 in test [1] and in test [2] were 0.066 µM and 0.024 µM, respectively.
The like results for `COc1cc2nccc(Oc3ccc(Nc4nnc(-c5cc(C)ccn5)c5ccccc45)cc3)c2cn1` [compound 121, N-(4-((7-(methyloxy)-1,6-naphthyridin-4-yl)oxy)phenyl)-4-(4-methyl-2-pyridinyl)-1-phthalazinamine] were, in that order, 0.041 µM and 0.007 µM.
On the same counts, the results for `COc1ccc2c(Oc3ccc(Nc4nnc(-c5cc(C)ccn5)c5ccccc45)cc3)ccnc2c1` [compound 118, N-(4-((7-(methyloxy)-4-quinolinyl)oxy)phenyl)-4-(4-methyl-2-pyridinyl)-1-phthalazinamine] are 0.136 µM and 0.009 µM.
